Values quoted from earlier work as cited in patent US20150289553A1, “METHOD OF DEVELOPING SAFE AND EFFECTIVE DIETARY SUPPLEMENTS” (priority 2014, published 2015).
Read-outs that look alike come from different tables or passages of the source.

Experiments:
[1] = for Clinically Effective Dosage Range: daily dosage, adults (18+ yrs.); for Dataset 2 Clinical Efficacy: Table 5, multivitamin/mineral for adult U.S. women
[2] = 400 IU/d; 19 trials, 135,967 subjects
[3] = 600 IU every other day; 39,876 women
[4] = 400 IU every other day for 8 years; 14,641 men
[5] = high intake of supplemental calcium; men
[6] = calcium supplements; almost 24,000 participants
[7] = not given; remark: listed apart in the source
[8] = Table 5, multivitamin/mineral for adult U.S. women
[9] = adults (18+ yrs.), derived from published literature and regulatory files

Molecule | Upper Limits, CRN-listed Nutrients (adults (18+ yrs.)) | Clinically Effective Dosage Range [1] | Dataset 1 Upper Limits [8] [mg] | Dataset 2 Clinical Efficacy [1] | other results
[P] [Phosphorus] | 1,500 mg | 125-2,000 mg | – | – | –
Cc1ncc(CO)c(CO)c1O [Vitamin B6 (pyridoxine), pyridoxine] | 100 mg | 0.17 to 200 mg | 100 | 0.17 to 200 mg | –
[K+] [Potassium] | 1,500 mg | 470-5,000 mg | – | – | –
Cc1c(C)c2c(c(C)c1O)CC[C@@](C)(CCC[C@H](C)CCC[C@H](C)CCCC(C)C)O2 [Vitamin E, RRR-alpha-tocopherol] | – | 1.5-1,342 mg | 1000 | 1.5 to 1342 mg | mortality [2]: increased mortality; UL (Upper Limit) (healthy US adults, Embodiment 1): 1,000 mg; effects on cardiovascular health or cancer prevention [3]: no effects; risk for cardiovascular disease [4]: did not reduce the risk
CC1=C(/C=C/C(C)=C/C=C/C(C)=C/CO)C(C)(C)CCC1 [Vitamin A (retinol and its esters), retinol] | – | 90-3,300 mcg | – | 0.09 to 3.3 mg | Dataset 1 Upper Limits (in vivo): 1.5 mg; Upper Limits, CRN-listed Nutrients (in vivo): 1,500 mcg
[O-2].[Zn+2] [Zinc] | 30 mg | 1.1 to 80 mg | 30 | 1.1 to 80 mg | –
[Ca+2] [Calcium] | 1,500 mg | 130-2,000 mg | 1500 | 130 to 2000 mg | risk of cardiovascular disease death [5]: associated with an excess risk of cardiovascular disease death; risk of myocardial infarction [6]: raised the risk of myocardial infarction
[Fe] [Iron] | – | 1.8 to 120 mg | – | 125 to 2000 mg | Dataset 1 Upper Limits (in vivo): 60 mg; Upper Limits, CRN-listed Nutrients (in vivo): 60 mg
CC1=C[C@H](O)CC(C)(C)[C@H]1/C=C/C(C)=C/C=C/C(C)=C/C=C/C=C(C)/C=C/C=C(C)/C=C/C1=C(C)C[C@@H](O)CC1(C)C [Lutein] | – | 0.1 to 20 mg | – | 0.1 to 20 mg | Dataset 1 Upper Limits (in vivo): 17.6 mg; Upper Limits, Other Nutrients (in vivo): 17.6 mg
[Mg+2] [Magnesium] | 400 mg | 42-1,200 mg | 400 | 42 to 1200 mg | –
CC1=C(/C=C/C(C)=C/C=C/C(C)=C/C=C/C=C(C)/C=C/C=C(C)/C=C/C2=C(C)C(=O)[C@@H](O)CC2(C)C)C(C)(C)C[C@H](O)C1=O [Astaxanthin] | – | 4 to 100 mg | – | – | Upper Limits, Other Nutrients (in vivo): 5.3 mg
Nc1nc2ncc(CNc3ccc(C(=O)N[C@@H](CCC(=O)O)C(=O)O)cc3)nc2c(=O)[nH]1 [Folic Acid] | – | 40-5,000 mcg | – | 0.04 to 5 mg | bioavailability ([7]; folic acid in supplements versus folic acid in foods (folates)): higher bioavailability
O=C1O[C@H]([C@@H](O)CO)C(O)=C1O [Vitamin C, ascorbic acid] | – | 9-10,000 mg | – | 9 to 10000 mg | –
CC1=C(/C=C/C(C)=C/C=C/C(C)=C/C=C/C=C(C)/C=C/C=C(C)/C=C/C2=C(C)C[C@@H](O)CC2(C)C)C(C)(C)C[C@H](O)C1 [Zeaxanthin] | – | 0.01 to 10 mg | – | – | Upper Limits, Other Nutrients (in vivo): 10 mg
O=C(O)CCCC[C@@H]1SC[C@@H]2NC(=O)N[C@@H]21 [Biotin] | 2,500 mcg | 3-15,000 mcg | 2.5 | 0.003 to 15 mg | –
[B] [Boron] | – | 0.2 to 11.6 mg | – | – | Upper Limits, CRN-listed Nutrients (in vivo): 6 mg
cyanocobalamin [Vitamin B12] | – | 0.24-2,500 mcg | – | 0.24-2500^ mcg | Dataset 1 Upper Limits (in vivo): 3 mg; Upper Limits, CRN-listed Nutrients (in vivo): 3,000 mcg

Molecule | Upper Limits, CRN-listed Nutrients (adults (18+ yrs.)) | Clinically Effective Dosage Range [1] | Dataset 1 Upper Limits [8] [mg] | Dataset 2 Clinical Efficacy [1] | other results
CC1=C(/C=C/C(C)=C/C=C/C(C)=C/C=C/C=C(C)/C=C/C=C(C)/C=C/C2=C(C)CCCC2(C)C)C(C)(C)CCC1 [Beta-Carotene] | – | 1 to 180 mg | – | – | Upper Limits, CRN-listed Nutrients (adults (18+ yrs.), non-smokers): 25 mg
[Mn+2] [Manganese] | 10 mg | 0.23 to 30 mg | 10 | 0.23 to 30 mg | –
C[N+](C)(C)CCO [Choline] | – | – | – | – | Upper Limits, Other Nutrients [9]: 3,500 mg
NC(=O)c1cccnc1 [Nicotinamide] | 1,500 mg | 1.6-3,000 mg | 1500 | 1.6 to 3000 mg | –
[Cr] [Chromium] | 1,000 mcg | 3.5-1,000 mcg | 1 | 0.0035 to 1 mg | –
CC/C=C\C/C=C\C/C=C\CCCCCCCC(=O)O [Alpha-Linolenic Acid] | – | – | – | – | Upper Limits, Other Nutrients (in vivo): 25000 mg
[Se] [Selenium] | – | 0.0055 to 0.2 mg | – | 5.5-200^ mcg | Dataset 1 Upper Limits (in vivo): 0.2 mg; Upper Limits, CRN-listed Nutrients (in vivo): 0.2 mg
[O]=[Mg] [magnesium oxide] | – | – | – | – | bioavailability ([7]; versus most organic magnesium salts or chelates (citrate, malate, glycinate)): lower bioavailability
CC(C)=CCC/C(C)=C/C=C/C(C)=C/C=C/C(C)=C/C=C/C=C(C)/C=C/C=C(C)/C=C/C=C(\C)CCC=C(C)C [Lycopene] | – | 0.2 to 30 mg | – | – | Upper Limits, Other Nutrients [9]: 11.3 mg
Cc1ncc(C[n+]2csc(CCO)c2C)c(N)n1 [Vitamin B1 (thiamin), thiamin] | 100 mg | 0.12-1,000 mg | 100 | 0.12-1000^ mg | –
CC1=CCCC(C)(C)C1/C=C/C(C)=C/C=C/C(C)=C/C=C/C=C(C)/C=C/C=C(C)/C=C/C1=C(C)CCCC1(C)C (stereo not drawn) [Alpha-Carotene] | – | 0.01 to 5 mg | – | – | Upper Limits, Other Nutrients [9]: 8.3 mg
[Cu] [Copper] | – | 0.09 to 8 mg | – | 0.09 to 8 mg | Dataset 1 Upper Limits (in vivo): 9 mg; Upper Limits, CRN-listed Nutrients (in vivo): 9 mg
[Mo] [Molybdenum] | – | 0.0045 to 0.467 mg | – | – | Upper Limits, CRN-listed Nutrients (in vivo): 0.35 mg
C=C1CC[C@H](O)C/C1=C/C=C1\CCC[C@]2(C)[C@@H]([C@H](C)CCCC(C)C)CC[C@@H]12 [Vitamin D, cholecalciferol] | – | 0.002 to 0.25 mg | – | 0.002 to 0.25 mg | –
Vitamin K | – | 12-1,000 mcg | – | – | Upper Limits, CRN-listed Nutrients (in vivo): 10 mg
O=C(O)c1cccnc1 [Nicotinic Acid] | 250 mg | 1.6-3,000 mg | – | – | –
